Experimental data as given in paper PMC10653547, “Synergistic effect of two antimicrobial peptides, BP203 and MAP-0403 J-2 with conventional antibiotics against colistin-resistant Escherichia coli and Klebsiella pneumoniae clinical isolates” (PLOS ONE, 2023).
“Also recorded” adds a separate entry of the source. Like-named read-outs stand apart in the source and are kept apart here. No end group written: not given here.

What was measured:
E. coli ATCC 25922 = system: E. coli ATCC 25922
Description: (§1) The MICs of BP203 and MAP-0403 J-2 against clinically colistin-resistant E. coli and K. pneumoniae isolates were determined using the broth microdilution method, according to CLSI recommendations. Briefly, the peptides were subjected to serial dilution in cation-adjusted Mueller-Hinton broth (CAMHB) and added to a 96-well microtiter plate (Wuxi NEST Biotechnology, Wuxi, China). Subsequently, bacterial suspensions from freshly mid-log phase cultures were diluted to 10^6 CFU/mL with CAMHB, and introduced to each well containing the peptides.
(§2) The antibacterial activity of BP203 and MAP-0403 J-2 was evaluated concerning their response to temperature, pH, serum, and salt ions using the MIC assay, following the previously mentioned procedure. The MIC values of peptides were determined against E. coli ATCC29522 and K. pneumoniae ATCC BAA-1706. […] For the pH stability assay, both peptides were incubated in buffers with different pH values (100 mM buffers: glycine-HCl buffer (pH 2.0), sodium acetate buffer (pH 4.0), sodium phosphate buffer (pH 6.0), Tris-HCl buffer (pH 8.0), and glycine-NaOH buffer (pH 10.0)) for 1 h at 37°C. […] For serum stability assay, both peptides were exposed to 25% and 50% fetal bovine serum (FBS) for 1 h at 37°C, followed by a heat activation step for 30 min at 60°C. Afterward, the peptide solutions were serially diluted and MIC was subsequently determined. […] The serial dilutions of peptides were incubated with tested strains for MIC testing. The MICs were observed after 20–24 h of incubation at 37°C.

[1] = system: K. pneumoniae ATCC BAA-1706
Description: as §1, §2

sheep red blood cells = assay: Hemolytic activity assay; type: cell-based; conditions: at concentrations as high as 200 μg/mL
Description: Sheep erythrocytes were employed to assess the hemolytic activity of BP203 and MAP-0403 J-2, following previously described with some modifications. Briefly, defibrinated sheep red blood cells (sRBCs) were centrifuged at 1,000× g, 4°C for 10 min. The packed sRBCs underwent three times washes with phosphate buffer saline (PBS), at pH 7.4, and were subsequently suspended in PBS to achieve a concentration of 4% (v/v). […] Following an incubation period of 1 h at 37°C, the mixtures were centrifuged at room temperature, 1,000× g for 10 min. The supernatants were collected and transferred to a 96-well microplate. Next, absorbance measurement was taken at 540 nm using a microplate reader (Tecan Group, Zurich, Switzerland). Blank, negative and positive controls were established using sRBCs incubated with PBS alone, BSA solution, and 0.1% Triton X-100, respectively. […] The percentage of hemolytic activity was calculated with the following equation: Hemolysis (%) = {(Sample absorbance—PBS absorbance)/(0.1% Triton X-100 absorbance—PBS absorbance)} × 100.

Compound | MIC in the presence of physiological salts (E. coli ATCC 25922; Control, 0) | MIC in the presence of physiological salts (E. coli ATCC 25922; FeCl3 1 μM) | MIC in the presence of physiological salts (E. coli ATCC 25922; FeCl3 4 μM) | MIC in the presence of physiological salts (E. coli ATCC 25922; FeCl3 8 μM) | MIC in the presence of physiological salts (E. coli ATCC 25922; MgCl2 0.5 mM) | MIC in the presence of physiological salts (E. coli ATCC 25922; MgCl2 1 mM) | MIC in the presence of physiological salts (E. coli ATCC 25922; MgCl2 2 mM) | MIC in the presence of physiological salts (E. coli ATCC 25922; NaCl 100 mM) | MIC in the presence of physiological salts (E. coli ATCC 25922; NaCl 150 mM) | MIC in the presence of physiological salts (E. coli ATCC 25922; NaCl 200 mM) | MIC in the presence of physiological salts ([1]; Control, 0) | MIC in the presence of physiological salts ([1]; FeCl3 1 μM) | MIC in the presence of physiological salts ([1]; FeCl3 4 μM) | MIC in the presence of physiological salts ([1]; FeCl3 8 μM) | MIC in the presence of physiological salts ([1]; MgCl2 0.5 mM) | MIC in the presence of physiological salts ([1]; MgCl2 1 mM) | MIC in the presence of physiological salts ([1]; MgCl2 2 mM) | MIC in the presence of physiological salts ([1]; NaCl 100 mM) | MIC in the presence of physiological salts ([1]; NaCl 150 mM) | MIC in the presence of physiological salts ([1]; NaCl 200 mM) | also measured
CC[C@H](C)[C@H](NC(=O)[C@H](CCCCN)NC(=O)[C@H](CCCCN)NC(=O)[C@H](Cc1ccccc1)NC(=O)[C@H](CC(C)C)NC(=O)[C@H](CCCCN)NC(=O)[C@@H](N)CCCCN)C(=O)N[C@@H](CC(C)C)C(=O)N[C@@H](CCCNC(=N)N)C(=O)N[C@@H](Cc1ccc(O)cc1)C(=O)N[C@@H](CC(C)C)C(N)=O [BP203] | 4 μg/mL | 4 μg/mL | 4 μg/mL | 4 μg/mL | 4 μg/mL | 4 μg/mL | 8 μg/mL | 8 μg/mL | 16 μg/mL | 16 μg/mL | 4 μg/mL | 4 μg/mL | 8 μg/mL | 8 μg/mL | 4 μg/mL | 8 μg/mL | 8 μg/mL | 8 μg/mL | 16 μg/mL | 16 μg/mL | Hemolysis (in words) (sheep red blood cells): negligible hemolysis; also recorded: no hemolytic activity
KWLRRPWRRWR-NH2 [MAP-0403 J-2] | 16 μg/mL | 16 μg/mL | 16 μg/mL | 16 μg/mL | 16 μg/mL | 16 μg/mL | 16 μg/mL | 32 μg/mL | 64 μg/mL | 64 μg/mL | 16 μg/mL | 16 μg/mL | 16 μg/mL | 32 μg/mL | 16 μg/mL | 16 μg/mL | 16 μg/mL | 32 μg/mL | 64 μg/mL | 64 μg/mL | Hemolysis (in words) (sheep red blood cells): negligible hemolysis; also recorded: no hemolytic activity
